Reference: US20240352072A1, “NOVEL COMPOSITIONS AND METHODS FOR TREATING CORONAVIRUS INFECTIONS” (priority 2021, published 2024)
Where two headings read alike, the source gives them in different places. Where no end group is shown, it is not given here. [ ]: non-standard residue; d: D form. The star is where a group is joined. Lys(Me2) = CN(C)CCCC[C@H](N)C(=O)O; Myristyl = CCCCCCCCCCCCCC*

Experiments:
SARS-CoV-2 [1] = assay type: cell-based
SARS-CoV-2 spike protein [2] = molecular target: T1, SARS-CoV-2 spike protein (Severe acute respiratory syndrome coronavirus 2, UniProt P0DTC2); assay type: cell-based
T1 construct: spike protein 51 (Glu14-Ser680) containing a poly-histidine tag at the C-terminus; poly-histidine (C)

SARS-CoV-2 [3] = assay type: cell-based; remark: listed apart in the source
[4] = molecular target: ACE2 and SARS-CoV-2 Spike (Severe acute respiratory syndrome coronavirus 2, UniProt P0DTC2); assay type: cell-based
ACE2unmod and IMPα1 = molecular target: T2, ACE2unmod and IMPα1 (Homo sapiens, UniProt P52292); assay type: cell-based; set-up: dose or concentration left out as unconfirmed; settings: H1299 cells
T2 construct: endogenous in cells; host or cells: H1299

ACE2-importin complex = assay type: binding
[5] = test system: ACE2, SARS-CoV-2 nucleocapsid and Spike proteins; assay type: cell-based
SARS-CoV-2 Spike protein [6] = test system: SARS-CoV-2 Spike protein; set-up: species or system golden Syrian Hamsters; settings: hamster, in vivo
perforin and CD3 = assay type: in vivo, golden Syrian Hamsters; settings: hamster, IP or IV routes
[7] = Hamster tolerance (animal safety) study; assay type: in vivo, golden Syrian Hamsters; settings: escalating IP doses
Procedure: Female golden Syrian Hamsters (6-8 weeks) were obtained from Janiver Labs (Le Genest-Saint-Isle, France) and studies conducted by Oncodesign® Biotechnology (Dijon Cedex, France). For tolerance experiments, animals (3 per group) received escalating doses of P604 ACE2 peptide inhibitor or ACE2i peptide via intraperitoneal injection. Doses were escalated daily (day 1: 25 mg/kg, day 2: 50 mg/kg, day 3: 100 mg/kg) and animals monitored prior to culling on day 4. Animal viability, behaviour and rectal temperature were recorded every 2 hours over a 6 hour period post-administration and body weights were measured daily. For P604 ACE2 peptide inhibitor efficacy studies, animals (8 per group) were treated with vehicle (IP, daily day 0, 1 and 2) (Sodium chloride 0.9%, Osalia, Paris, France) or P604 ACE2 peptide inhibitor over a 2-day period via intravenous (IV, 15 mg/kg, day 0 once and day 1 twice, 8 hours apart) or intraperitoneal (IP, 100 mg/kg, daily Day 0, 1, 2) injection. For P604 ACE2 peptide inhibitor efficacy studies, animals were treated with vehicle or P604 ACE2 peptide inhibitor (30 mg/kg, IN, twice daily, Day 0, 1 8 hours apart).

SARS-CoV-2 [8] = test system: SARS-CoV-2; set-up: species or system golden Syrian Hamsters; settings: hamster, in vivo
[9] = test system: SARS-Cov-2 induced lung pathology; set-up: species or system golden Syrian Hamsters; settings: hamster, in vivo
SARS-CoV-2 [10] = test system: SARS-CoV-2; set-up: species or system golden Syrian Hamsters; settings: hamster, in vivo; remark: listed apart in the source
ACE2, LSD1 = assay type: cell-based; settings: Caco-2 cells
LSD1 [11] = molecular target: T3, LSD1 (Homo sapiens, UniProt O60341)
LSD1 [12] = molecular target: T3, LSD1; experiment: In vitro LSD1 activity assay (demethylation of ACE2 peptide at lysine 31); assay type: biochemical

STIEEQAKTFLDK [ACE2-02]
decrease of viral RNA in infected cells (SARS-CoV-2 [1]): 2 fold
reduction of infection (qRT-PCR) in cell culture supernatants (SARS-CoV-2 [1]): 4.6 fold
inhibition of Spike protein binding to the cell surface (SARS-CoV-2 spike protein [2]): significantly inhibit
reduction in viral load (infectious viral titers, TCID50) (SARS-CoV-2 [3]): 3.2 fold
interaction between ACE2 and spike protein (ACE2/spike complexes at the cell surface) [4]: further disrupted

Myristyl-TGIRDRKKKNKARS-OH (SMILES CCCCCCCCCCCCCCN[C@H](C(=O)NCC(=O)N[C@H](C(=O)N[C@@H](CCCNC(=N)N)C(=O)N[C@@H](CC(=O)O)C(=O)N[C@@H](CCCNC(=N)N)C(=O)N[C@@H](CCCCN)C(=O)N[C@@H](CCCCN)C(=O)N[C@@H](CCCCN)C(=O)N[C@@H](CC(N)=O)C(=O)N[C@@H](CCCCN)C(=O)N[C@@H](C)C(=O)N[C@@H](CCCNC(=N)N)C(=O)N[C@@H](CO)C(=O)O)[C@@H](C)CC)[C@@H](C)O) [P604]
ACE2unmod-IMP1 interaction (DUOLINK) (ACE2unmod and IMPα1): significantly all but abrogated
inhibition of the ACE2-importin complex in vitro (ACE2-importin complex): directly inhibiting the ACE2-importin complex
expression of Spike protein of SARS-CoV-2 [5]: significantly inhibit and downregulate
expression of host ACE2 [5]: significantly inhibit and downregulate
expression of nucleocapsid protein of SARS-CoV-2 [5]: significantly inhibit and downregulate
overall intensity of Spike protein signal in positive cells (SARS-CoV-2 Spike protein [6]): significantly reduced
population of cells in bronchial lung sections positive for SARS-CoV-2 spike protein (SARS-CoV-2 Spike protein [6]): significantly reduced
CD3+ cells expressing perforin in lung (perforin and CD3): induce more CD3+ cells to express perforin
cells positive for perforin in lung (perforin and CD3): significantly induce higher cells positive for perforin
toxicity in animal safety studies [7]: minimal toxicity
viral RNA in the lungs (SARS-CoV-2 [8]): Significant reductions
decrease in viral load normalized to the vehicle group (SARS-CoV-2 [8]; ip, 100 mg/kg): 96%
decrease in viral load normalized to the vehicle group (SARS-CoV-2 [8]; iv, 15 mg/kg): 88%
changes in the bronchioles or vessels (H&E) [9]: minimal changes
mean cumulative histopathological scores [9]: substantially lower than the vehicle group
lung infectious titers (TCID50 assay) (SARS-CoV-2 [10]): reduced
PCC(r) of LSD1 and ACE2 (co-localisation) (ACE2, LSD1): significantly abrogated
ACE2 expression on the cell surface (ACE2, LSD1; 25 mM/50 mM): de-stabilizes ACE2 expression on the cell surface
cell surface LSD1 expression (ACE2, LSD1; 25 mM/50 mM): reducing cell surface LSD1 expression

NNCCc1ccccc1 [phenelzine]
effect on ACE2 transcription (LSD1 [11]): minimal effect
expression and co-localization of LSD1 with ACE2 and TMRPSS2 (LSD1 [11]): abrogated

QAKTFLD{Lys(Me2)}FNHEAED (QAKTFLD[Lys(Me2)]FNHEAED) [ACE2me2]
de-methylation at lysine 31 by LSD1 (LSD1 [12]): efficiently de-methylated
